Values after ≈ are worked out from the molar mass of the structure shown. Like-named read-outs stand apart in the source and are kept apart here.
Experiments:
[1] = test system: Candida albicans (ATCC 10213); assay: MIC determination (microdilution), C. albicans; format: cell-based; conditions: for MIC: Candida albicans, ATCC10213
Protocol: (§1) The crude extract and pure compounds isolated were tested against human pathogenic microorganisms, including the bacterium Staphylococcus aureus (ATCC 29213), MRSA (ATCC 33591), Candida albicans (ATCC 10213), Trichophyton rubrum (SNB-TR1) and P. aeruginosa ATCC 27853 to screen their antibacterial and antifungal activities. All ATCC strains were purchased from the Pasteur Institute. The clinical isolate was provided by Prof. Philippe Loiseau, Université Paris Sud. The ITS sequence was deposited in the NCBI GenBank database under the registry number KC692746 corresponding to SNB-TR1 strain. The tests were conducted in accordance to the reference protocols from the European Committee on Antimicrobial Susceptibility Testing. The standard microdilutions, ranging from 256 to 0.25 μg/mL were made from stock solutions prepared in DMSO (Sigma-Aldrich, France). The microplates were incubated at 35° C., and MIC values were obtained after 48 h for C. albicans, 24 h for S. aureus and 5 days for T. rubrum. The MIC values reported in Table 2 refer to the lowest concentration preventing visible growth in the wells. Vancomycin (Sigma-Aldrich, Saint-Quentin Fallavier, France) and oxacillin (Sigma-Aldrich, Saint-Quentin Fallavier, France) were used as positive controls for bacteria. Fluconazole (Sigma-Aldrich, Saint-Quentin Fallavier, France) and itraconazole (Sigma-Aldrich, Saint-Quentin Fallavier, France) were used as positive controls for fungi. All assays were conducted in duplicate.

[2] = test system: Trichophyton rubrum (SNB-TR1); assay: MIC determination (microdilution), T. rubrum; format: cell-based; conditions: for MIC: Trichophyton rubrum, 120 h
Protocol: as §1

[3] = test system: Acinetobacter baummanii 19606; assay: MIC against Gram-negative bacteria, alone or in combination with colistin; format: cell-based
Protocol: as §1
(§2) Permeabilizers are compounds that weaken the outer membrane by enhance the permeability of bacterial cells to antimicrobial agents. [Farrag, H. A.; Abdallah, N.; Shehata, M. M. K.; Awad, E. M. J Biomed Sci, 2019, 26:69] Colistin a.k.a. polymyxin E were extensively used in clinical practice for Gram-negative organisms, but gradually withdrawn from the market due to reports of significant nephrotoxicity and neurotoxicity. [Mohamed, Y. F., Abou-Shleib, H. M., Khalil, A. M., El-Guink, N. M., & El-Nakeeb, M. A. Braz J Microbiol., 2016, 47, 381-388] In combinaison with various antibiotics, colistin is known to destabilize the outer membrane enhancing the antibacterial activity. In our study, we evaluated a combinaison of colistin at a sub-inhibitory concentration and Aspidin CB. […] (Table 5)

[4] = test system: Escherichia coli WT 25922; assay: as above; format: cell-based
Protocol: as §1, §2

[5] = test system: Staphylococcus aureus (ATCC 29213); assay: MIC determination (microdilution), S. aureus; format: cell-based; conditions: for MIC: Staphylococcus aureus, ATCC29213
Protocol: as §1

MRSA (ATCC 33591) = assay: MIC determination (microdilution), MRSA; format: cell-based, Staphylococcus aureus; conditions: for MIC: Staphylococcus aureus, read-out: MIC MRSA ATCC 33591
Protocol: as §1

[6] = Cytotoxicity evaluation, MTS assay; format: cell-based; conditions: human, MRC-5 human lung fibroblast cells, 72 h, read-out: MRC5 Cell Viability
Protocol: (§3) Human lung fibroblast cells (MRC-5) were purchased from ATCC (Rockville, Md., USA) and cultured as recommended. Cell growth inhibition was determined by an MTS assay according to the manufacturer's instructions (Promega, Madison, Wis., USA). The cells were seeded in 96-well plates containing the growth medium. After 24 h of culture, samples were dissolved in DMSO (Sigma-Aldrich, France), and added to the cells (at 1 and 10 μM final concentrations). After 72 h of incubation, the reagent was added, and the absorbance at 490 nm was recorded using a plate reader. Cell viability was evaluated in comparison with untreated control cultures. Docetaxel (Taxotere) was used as positive control (IC50: 0.5 nM). All assays were conducted in triplicate.

[7] = test system: Human lung fibroblast cells (MRC-5); assay: Cytotoxicity evaluation, MTS assay; format: cell-based
Protocol: as §3

[8] = test system: S. epidermis MSF G + 15 (clinical strain); assay: MIC against Gram-positive bacteria; format: cell-based
SARM NCTC 12493 = assay: MIC against Gram-positive bacteria; format: cell-based; conditions: Staphylococcus aureus, NCTC12493
S. aureus ATCC25923 = assay: MIC against Gram-positive bacteria; format: cell-based; conditions: Staphylococcus aureus
[9] = test system: SARM G + 78 (clinical strain); assay: MIC against Gram-positive bacteria; format: cell-based; conditions: Staphylococcus aureus
Protocol: as §1

[10] = test system: SARM G + 79 (clinical strain); assay: MIC against Gram-positive bacteria; format: cell-based; conditions: Staphylococcus aureus
Protocol: as §1

[11] = test system: SARM G + 82 (clinical strain); assay: MIC against Gram-positive bacteria; format: cell-based; conditions: Staphylococcus aureus
Protocol: as §1

[12] = test system: SARM G + 86 (clinical strain); assay: MIC against Gram-positive bacteria; format: cell-based; conditions: Staphylococcus aureus
Protocol: as §1

[13] = test system: Bacillus sp. L4 210321 (clinical strain); assay: MIC against Gram-positive bacteria; format: cell-based
[14] = test system: Corynebacterium sp. L2 220321 (clinical strain); assay: MIC against Gram-positive bacteria; format: cell-based
[15] = test system: Enterococcus faecalis 29212; assay: MIC against Gram-positive bacteria; format: cell-based
[16] = test system: Enterococcus faecium van B (clinical strain); assay: MIC against Gram-positive bacteria; format: cell-based
[17] = test system: S. epidermis MSF G + 16 (clinical strain); assay: MIC against Gram-positive bacteria; format: cell-based
[18] = test system: Enterococcus faecium SI299 (clinical strain); assay: MIC against Gram-positive bacteria; format: cell-based
[19] = ABTS radical scavenging (antioxidant) assay; format: biochemical; conditions: at 50 μg/ml
Description: P. mauritianum extracts were investigated for their antioxidant activities with using an ABTS [2,2′-azinobis-(3-ethylbenzothiazoline-6-sulfonate)] assay.

[20] = colistin at sub-inhibitory concentration, in words
[21] = human pathogenic fungi, in words

`OC(Cn1cncn1)(Cn1cncn1)c1ccc(F)cc1F` [Fluconazole, reference compound] showed an MIC ([1]; Table 6, 48 h) of 1 µg/mL (≈ 3.27 µM) and an MIC ([2]; Table 6, 5 days) of 4 µg/mL (≈ 13.1 µM).
In the case of Colistin [reference compound], the “MIC Acinetobacter baummanii 19606” value ([3]; single agent) is reported as 4 µg/mL and the “MIC Escherichia coli WT 25922” value ([4]; single agent) is reported as 1 µg/mL.
In the case of `CCCCCC(=O)C1=C(O)C(C)(C)C(O)=C(Cc2c(O)c(C)c(OC)c(C(=O)CCC)c2O)C1=O` [Compound 2, Aspidin CB], the “Fold stronger activity of compound 2 vs compound 1 on S. aureus strains” value ([5]; S. aureus and MRSA, ratio of MICs) is reported as 4-to 8 fold, the MIC ([5]; Table 6 and text, 24 h) is reported as 0.25 µg/mL (≈ 0.512 µM) and the MIC (MRSA (ATCC 33591); Table 6 and text) is reported as 0.25 µg/mL (≈ 0.512 µM). The “Fold more potent than vancomycin against MRSA” value (MRSA (ATCC 33591); ratio of MICs) was 16 fold, the MIC ([1]; Table 6, 48 h) was over 256 µg/mL and the MIC ([2]; Table 6, 5 days) was 256 µg/mL (≈ 524 µM). The viability at 72 h ([6]; 10^−5 M) was 99 ± 2%, the viability at 72 h ([6]; 10^−6 M) was 105 ± 2% and the “Cytotoxicity in MRC5 cells” value ([7]; at 10^−5 M, in words) was “no cytotoxicity was observed”. The MIC [8] was 0.5 µg/mL (≈ 1.02 µM), the MIC (SARM NCTC 12493) was 0.5 µg/mL (≈ 1.02 µM) and the MIC (S. aureus ATCC25923) was 0.5 µg/mL (≈ 1.02 µM). The MIC [9] was 0.5 µg/mL (≈ 1.02 µM), the MIC [10] was 1 µg/mL (≈ 2.05 µM) and the MIC [11] was 0.5 µg/mL (≈ 1.02 µM). For the same molecule, the MIC [12] was 0.5 µg/mL (≈ 1.02 µM), the MIC [13] was 1 µg/mL (≈ 2.05 µM) and the MIC [14] was 1 µg/mL (≈ 2.05 µM). For the same molecule, the MIC [15] was 8 µg/mL (≈ 16.4 µM), the MIC [16] was 0.5 µg/mL (≈ 1.02 µM) and the MIC [17] was 2 µg/mL (≈ 4.09 µM). For the same molecule, the MIC [18] was 8 µg/mL (≈ 16.4 µM), the MIC ([3]; Acinetobacter, 19606, single agent) was over 64 µg/mL and the “Activity against A. baumanii in combination with colistin vs alone” value [3, 20] was “unambiguously more active”. For the same molecule, the MIC ([4]; Escherichia coli, WT25922, single agent) was over 64 µg/mL and the “Activity against E. coli in combination with colistin vs alone” value [4, 20] was “unambiguously more active”.
In the case of `Cc1c(C)c2c(c(C)c1O)CCC(C)(C(=O)O)O2` (centres unmarked) [Trolox], the “% ABTS inhibition” value [19] is reported as 98.0%.
`Cc1onc(-c2ccccc2)c1C(=O)N[C@@H]1C(=O)N2[C@@H]1SC(C)(C)[C@@H]2C(=O)O` [Oxacillin, reference compound] showed an MIC ([5]; Table 6 and text, 24 h) of 0.25 µg/mL (≈ 0.623 µM).
Molecule `CCC(C)n1ncn(-c2ccc(N3CCN(c4ccc(OCC5COC(Cn6cncn6)(c6ccc(Cl)cc6Cl)O5)cc4)CC3)cc2)c1=O` (centres unmarked) [Itraconazole, reference compound] has an MIC ([1]; Table 6, 48 h) of under 0.5 µg/mL and an MIC ([2]; Table 6, 5 days) of under 0.5 µg/mL.
Work on `CC(=O)O[C@@]12CO[C@@H]1C[C@H](O)[C@@]1(C)C(=O)[C@H](O)C3=C(C)[C@@H](OC(=O)[C@H](O)[C@@H](NC(=O)OC(C)(C)C)c4ccccc4)C[C@@](O)([C@@H](OC(=O)c4ccccc4)[C@H]21)C3(C)C` [Docetaxel, reference compound] yielded an IC50 ([7]; Homo sapiens, MRC5, positive control, 72 h, read-out: IC50 cell growth inhibition MRC-5) of 0.5 nM.
In the case of `CCCC(=O)C1=C(O)C(Cc2c(O)c(C)c(OC)c(C(=O)CCC)c2O)=C(O)C(C)(C)C1=O` [Compound 1, Aspidin BB], the “MIC S. aureus ATCC 29213” value ([5]; Table 6 and text, 24 h) is reported as 2 µg/mL (≈ 4.34 µM), the “Antibacterial activity against S. aureus” value ([5]; in words) is reported as “strongly active” and the “MIC MRSA ATCC 33591” value (MRSA (ATCC 33591); Table 6 and text) is reported as 1 µg/mL (≈ 2.17 µM). The “Antibacterial activity against MRSA” value (MRSA (ATCC 33591); in words) was “strongly active”, the “MIC C. albicans ATCC 10213” value ([1]; Table 6, 48 h) was over 256 µg/mL and the “Antifungal activity against C. albicans” value [1, 21] was “inactive”. For the same molecule, the “MIC T. rubrum SNB-TR1” value ([2]; Table 6, 5 days) was over 256 µg/mL, the “Antifungal activity against T. rubrum” value [2, 21] was “inactive” and the “MRC5 Cell Viability” value ([7]; 10^−5 M, 72 h) was 86 ± 3%. For the same molecule, the “MRC5 Cell Viability” value ([7]; 10^−6 M, 72 h) was 104 ± 1%.
In the case of `CN[C@H](CC(C)C)C(=O)N[C@H]1C(=O)N[C@@H](CC(N)=O)C(=O)N[C@H]2C(=O)N[C@H]3C(=O)N[C@H](C(=O)N[C@H](C(=O)O)c4cc(O)cc(O)c4-c4cc3ccc4O)[C@H](O)c3ccc(c(Cl)c3)Oc3cc2cc(c3O[C@@H]2O[C@H](CO)[C@@H](O)[C@H](O)[C@H]2O[C@H]2C[C@](C)(N)[C@H](O)[C@H](C)O2)Oc2ccc(cc2Cl)[C@H]1O` [Vancomycin, reference compound], the MIC (MRSA (ATCC 33591)) is reported as 4 µg/mL (≈ 2.76 µM).
For Tocopherol, the “% ABTS inhibition” value [19] was 97.6%.

— patent US12178790B2, “Antibacterial compound isolated from Psiloxylon mauritianum and its derivatives” (CENTRE NATIONAL DE LA RECHERCHE SCIENTIFIQUE(CNRS), priority 2021, dated 2024)
